19 molecules from PMC12704303, “Production of RPSL12-TetR fusion and development of two multiplex methods for simultaneous detection of tetracyclines and aminoglycosides in pork” (Food Chemistry: X, 2025) can be followed below.

≈ marks a conversion by molar mass, not a printed value.

One assay concerns T1, RPSL12-TetR.
T1 construct: gene rpsL; single-chain fusion RPSL12 (372 bp) - linker (45 bp) - TetR (636 bp), total 1053 bp, in pET-32a(+), His-tag, expressed in E. coli host, Ni-NTA from soluble supernatant, about 41 kDa
Nature of the assay: microplate direct competition chemiluminescence, coated fusion protein, MC-HRP tracer. In kind it is binding, Escherichia coli. As to conditions: competition with minocycline-HRP conjugate (TetR part); blank pork extract; 37 °C, 30 min. From the text: microplate direct competition chemiluminescence, coated fusion protein, MC-HRP tracer on RPSL12-TetR
For `CN(C)[C@@H]1C(=O)C(C(N)=O)=C(O)[C@@]2(O)C(=O)C3=C(O)c4c(O)ccc(Cl)c4[C@@](C)(O)[C@H]3C[C@@H]12` [CTC], the IC50 (in general, the concentration at which inhibition is half-maximal) is 0.0344 ng/mL (≈ 0.0718 nM).
In the case of `C[C@H]1c2cccc(O)c2C(=O)C2=C(O)[C@]3(O)C(=O)C(C(N)=O)=C(O)[C@@H](N(C)C)[C@@H]3[C@@H](O)[C@@H]21` [DC], the “IC50” value was 0.0395 ng/mL (≈ 0.0889 nM).
As to `CN(C)[C@@H]1C(=O)C(C(N)=O)=C(O)[C@@]2(O)C(=O)C3=C(O)c4c(O)ccc(Cl)c4[C@@H](O)[C@H]3C[C@@H]12` [DMC], the “IC50” value is on record as 0.0287 ng/mL (≈ 0.0617 nM).
For `CN(C)[C@@H]1C(O)=C(C(=O)NCNCCCC[C@H](N)C(=O)O)C(=O)[C@@]2(O)C(O)=C3C(=O)c4c(O)cccc4[C@@](C)(O)[C@H]3C[C@@H]12` [LMC], the 50% inhibitory concentration (IC50) came out at 0.0427 ng/mL (≈ 0.0709 nM).
On the same count and under the same terms, the result for `CN(C)c1ccc(O)c2c1C[C@H]1C[C@H]3[C@H](N(C)C)C(O)=C(C(N)=O)C(=O)[C@@]3(O)C(O)=C1C2=O` [MC] reads 0.0357 ng/mL (≈ 0.078 nM).
Turning to `C=C1c2cccc(O)c2C(O)=C2C(=O)[C@]3(O)C(O)=C(C(N)=O)C(=O)[C@@H](N(C)C)[C@@H]3[C@@H](O)[C@H]12` [MTC], the “IC50” value is on record as 0.0418 ng/mL (≈ 0.0945 nM).
Still for that read-out and setting: to `CN(C)[C@@H]1C(=O)C(C(N)=O)=C(O)[C@@]2(O)C(=O)C3=C(O)c4c(O)cccc4[C@@](C)(O)[C@H]3[C@H](O)[C@@H]12` [OTC] belongs 0.0402 ng/mL (≈ 0.0873 nM); to `CN(C)[C@@H]1C(=O)C(C(N)=O)=C(O)[C@@]2(O)C(=O)C3=C(O)c4c(O)cccc4C[C@H]3C[C@@H]12` [SC], 0.0378 ng/mL (≈ 0.0912 nM).
On the same count and under the same terms, the result for `CN(C)[C@@H]1C(=O)C(C(N)=O)=C(O)[C@@]2(O)C(=O)C3=C(O)c4c(O)cccc4[C@@](C)(O)[C@H]3C[C@@H]12` [TC] reads 0.038 ng/mL (≈ 0.0855 nM); that for `CN(C)c1cc(NC(=O)CNC(C)(C)C)c(O)c2c1C[C@H]1C[C@H]3[C@H](N(C)C)C(=O)C(C(N)=O)=C(O)[C@@]3(O)C(=O)C1=C2O` [TIC], 0.0414 ng/mL (≈ 0.0707 nM).

A further assay has as its system T1, RPSL12-TetR. As to the kind of experiment: microplate direct competition chemiluminescence, coated fusion protein, STR-ALP tracer. Format: binding, Escherichia coli. The settings on record: competition with streptomycin-ALP conjugate (RPSL12 part); blank pork extract; 37 °C, 30 min. From the text:
microplate direct competition chemiluminescence, coated fusion protein, STR-ALP tracer on RPSL12-TetR
As for `NCC[C@H](O)C(=O)N[C@@H]1C[C@H](N)[C@@H](O[C@H]2O[C@H](CN)[C@@H](O)[C@H](O)[C@H]2O)[C@H](O)[C@H]1O[C@H]1O[C@H](CO)[C@@H](O)[C@H](N)[C@H]1O` [AMK], the half-inhibitory concentration (IC50) is 5.1 ng/mL (≈ 8.71 nM).
In the case of `CCN[C@@H]1C[C@H](N)[C@@H](O[C@H]2O[C@H](CN)CC[C@H]2N)[C@H](O)[C@H]1O[C@H]1OC[C@](C)(O)[C@H](NC)[C@H]1O` [ETM], the “IC50” value is listed as 17 ng/mL (≈ 35.6 nM).
`CN[C@@H]1[C@@H](O)[C@@H](O[C@@H]2[C@@H](O)[C@H](O[C@H]3O[C@H](CN)[C@@H](O)[C@H](O)[C@H]3O)[C@@H](N)C[C@H]2NC(=O)[C@@H](O)CN)OC[C@]1(C)O` [ISM]: the “IC50” value turned out to be 3.6 ng/mL (≈ 6.32 nM).
Turning to `NC[C@H]1O[C@H](O[C@H]2[C@H](O)[C@@H](O[C@H]3O[C@H](CO)[C@@H](O)[C@H](N)[C@H]3O)[C@H](N)C[C@@H]2N)[C@H](O)[C@@H](O)[C@@H]1O` [KAN], the “IC50” value stood at 6.4 ng/mL (≈ 13.2 nM).
Turning to `CNC[C@@H]1CC[C@@H](N)[C@@H](O[C@H]2[C@H](O)[C@@H](O[C@H]3OC[C@](C)(O)[C@H](NC)[C@H]3O)[C@H](N)C[C@@H]2N)O1` [MIM], the “IC50” value is on record as 3.8 ng/mL (≈ 8.2 nM).
On to `CCN[C@@H]1C[C@H](N)[C@@H](O[C@H]2OC(CN)=CC[C@H]2N)[C@H](O)[C@H]1O[C@H]1OC[C@](C)(O)[C@H](NC)[C@H]1O` [NTM], for which the “IC50” value came out at 16 ng/mL (≈ 33.6 nM).
The same measure, in the same setting: the result for `NC[C@@H]1O[C@H](O[C@H]2[C@@H](O)[C@H](O[C@@H]3[C@@H](O)[C@H](N)C[C@H](N)[C@H]3O[C@H]3O[C@H](CO)[C@@H](O)[C@H](O)[C@H]3N)O[C@@H]2CO)[C@H](N)[C@@H](O)[C@@H]1O` [PMM] reads 5.4 ng/mL (≈ 8.77 nM).
For `CN[C@@H]1[C@H](O)[C@H](NC)[C@H]2O[C@@]3(O)C(=O)C[C@@H](C)O[C@H]3O[C@@H]2[C@H]1O` [SPM], the half-inhibitory concentration (IC50) was found to be 9.8 ng/mL (≈ 29.5 nM).
Same read-out and setting: the result for `CN[C@@H]1[C@H](O[C@H]2[C@H](O[C@H]3[C@H](O)[C@@H](O)[C@H](N=C(N)N)[C@@H](O)[C@@H]3N=C(N)N)O[C@@H](C)[C@]2(O)C=O)O[C@@H](CO)[C@H](O)[C@H]1O` [STR] reads 5.1 ng/mL (≈ 8.77 nM).
